Patent US20050261472A1, “Binding moieties for fibrin” (Dyax Corp., priority 1999, published 2005)
Bridge positions count the residues as written; N and C are the ends. Square brackets hold non-standard residues; d marks the D form. Peptide text beside a SMILES is read from it. hSer = N[C@@H](CCO)C(=O)O

What follows are compounds tested against T1, DD(E) (Homo sapiens, UniProt P02671+P02675+P02679) (assay: dissociation constant against fibrin-derived polypeptide DD(E)). Details: cyclic peptides of Table 12; unit inferred; read-out: Kd against DD(E).
T1 construct: host or cells: purchased fibrinogen clotted with thrombin, digested with plasmin, then purified by ammonium sulfate cuts and Sephacryl S200
Assay type: binding
Procedure: The soluble fibrin-derived polypeptide DD(E) was prepared following a modification of a published method (Moskoitz and Budzynksi, Biochemistry, 33: 12937-12944 (1994) and references therein). Fibrinogen containing a Factor XIII trace impurity (1 g, Grade L; purchased from American Diagnostica) was dissolved in TBS buffer and dialyzed overnight against TBS containing 5 mM citrate. The fibrinogen concentration was adjusted to 3.0 mg/ml and CaCl2 was added to a concentration of 10 mM. Clotting of the fibrinogen was initiated by the addition of thrombin to 0.5 U/ml and the clot was incubated for 3 hours at 37° C. The clot was cut up with a spatula to release water and to concentrate the clot. The clot pieces were washed twice with TBS.Ca buffer (TBS containing 2 mM CaCl2) and were centrifuged at 4,000×g to compact the clots between washes. The clot material was resuspended in 250 ml TBS containing 25 mM CaCl2 and 2 K.I.U. plasmin per mg fibrin. The clots were digested overnight at 20° C. Undigested clot was removed by pipette, and the supernatant was shaken with 10 ml of Lysine Sepharose (Pharmacia) for 30 minutes and filtered to remove the resin. Aprotinin was added to the filtrate to a concentration of 500 U/μL. Ammonium Sulfate was added to 30% saturation and the precipitated protein was removed by centrifugation. More ammonium sulfate was added to the supernatant to a final concentration of 50% saturation, and the precipitated protein was concentrated by centrifugation. The pellets, containing DD(E), were resuspended in a small volume of buffer (50 mM Tris, 150 mM NaCl, 2 mM CaCl2) (<10 ml) and chromatographed on a Sephacryl S200 (Pharmacia) size exclusion column (5×100 cm) in the same buffer. Fractions of protein eluted from the column were assayed by SDS-PAGE for DD(E). DD(E) contains subunits of 55 kD (Fragment E) and 190 kD (Fragment DD). […]
Dissociation constants were determined against DD(E) as described above.

T1 sequence (P02671 130-216): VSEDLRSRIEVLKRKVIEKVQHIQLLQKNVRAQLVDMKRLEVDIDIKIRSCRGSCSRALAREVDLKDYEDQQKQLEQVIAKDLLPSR
T1 sequence (P02675 164-491): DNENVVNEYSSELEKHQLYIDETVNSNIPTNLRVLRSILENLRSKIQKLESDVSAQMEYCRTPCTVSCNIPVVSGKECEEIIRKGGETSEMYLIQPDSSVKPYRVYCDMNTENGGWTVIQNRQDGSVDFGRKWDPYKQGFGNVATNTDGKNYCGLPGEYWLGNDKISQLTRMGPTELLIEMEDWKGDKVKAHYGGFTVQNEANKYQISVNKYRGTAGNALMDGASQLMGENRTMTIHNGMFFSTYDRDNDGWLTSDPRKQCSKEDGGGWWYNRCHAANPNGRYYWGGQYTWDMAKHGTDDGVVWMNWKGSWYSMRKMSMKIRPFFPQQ
T1 sequence (P02679 114-432): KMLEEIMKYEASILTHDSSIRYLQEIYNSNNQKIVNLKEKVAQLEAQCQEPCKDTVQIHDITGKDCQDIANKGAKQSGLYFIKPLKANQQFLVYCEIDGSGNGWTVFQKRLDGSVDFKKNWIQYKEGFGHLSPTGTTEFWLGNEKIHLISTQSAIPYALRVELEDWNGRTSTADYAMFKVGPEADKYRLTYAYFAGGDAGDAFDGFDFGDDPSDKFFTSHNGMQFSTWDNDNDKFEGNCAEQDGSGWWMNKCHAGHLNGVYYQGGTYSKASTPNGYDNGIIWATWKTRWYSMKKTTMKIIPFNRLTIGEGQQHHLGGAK
T1 sequence (P02671 36-97): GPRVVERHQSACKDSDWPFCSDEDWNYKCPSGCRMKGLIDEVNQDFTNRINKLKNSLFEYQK
T1 sequence (P02675 45-152): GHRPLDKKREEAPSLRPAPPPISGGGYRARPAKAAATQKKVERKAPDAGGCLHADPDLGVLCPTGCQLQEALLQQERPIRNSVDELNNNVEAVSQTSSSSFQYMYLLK
T1 sequence (P02679 27-88): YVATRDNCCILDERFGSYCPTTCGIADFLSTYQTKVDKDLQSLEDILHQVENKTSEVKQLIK

Row | Compound | Kd [µM]
1 | side-chain-to-side-chain cyclic peptide bearing a central Tyr-Tyr-Gly-Thr moiety [(III)] | 179

Same assay, conditions: read-out: Kd DD(E)

Row | Compound | Kd [µM]
2 | H-DYYGT-NH2 [compound 35] | > 100
3 | CC(C)C[C@H](NC(=O)[C@@H]1CSSC[C@H](NC(=O)[C@@H]2CCCN2C(=O)[C@@H](N)CCCNC(=N)N)C(=O)N[C@@H](CC(N)=O)C(=O)N[C@@H](Cc2ccc(O)cc2)C(=O)N[C@@H](Cc2ccc(O)cc2)C(=O)NCC(=O)N[C@@H]([C@@H](C)O)C(=O)N1)C(=O)N[C@@H](Cc1c[nH]cn1)C(N)=O [SEQ ID NO: 16, RPCNYYGTCLH] (H-RPCNYYGTCLH-NH2; disulfide 3-9) | 4
4 | CC(C)C[C@H](N)C(=O)N1CCC[C@H]1C(=O)N[C@H]1CSSC[C@@H](C(=O)N[C@@H](C)C(=O)N[C@@H](CC(=O)O)C(N)=O)NC(=O)[C@H]([C@@H](C)O)NC(=O)CNC(=O)[C@H](Cc2ccc(O)cc2)NC(=O)[C@H](Cc2ccc(O)cc2)NC(=O)[C@H](CC(=O)O)NC1=O [SEQ ID NO: 47, LPCDYYGTCAD] (H-LPCDYYGTCAD-NH2; disulfide 3-9) | 10.1
5 | CC(C)C[C@H](NC(=O)[C@@H]1CSSC[C@H](NC(=O)[C@@H]2CCCN2)C(=O)N[C@@H](CC(=O)O)C(=O)N[C@@H](Cc2ccc(O)cc2)C(=O)N[C@@H](Cc2ccc(O)cc2)C(=O)NCC(=O)N[C@@H]([C@@H](C)O)C(=O)N1)C(N)=O [compound 32] (H-PCDYYGTCL-NH2; disulfide 2-8) | 50
6 | CC(C)C[C@H](NC(=O)[C@@H]1CSSC[C@H](NC(=O)[C@@H]2CCCN2C(=O)[C@@H](N)CC(C)C)C(=O)N[C@@H](CC(=O)O)C(=O)N[C@@H](Cc2ccc(O)cc2)C(=O)N[C@@H](Cc2ccc(O)cc2)C(=O)NCC(=O)N[C@@H](CN)C(=O)N1)C(=O)N[C@@H](CC(=O)O)C(N)=O [SEQ ID NO: 49, LPCDYYGDprCLD] | > 500
7 | CC(C)C[C@H](NC(=O)[C@@H]1CSSC[C@H](NC(=O)[C@@H]2CCCN2C(=O)[C@@H](N)CC(C)C)C(=O)N[C@@H](CC(=O)O)C(=O)N[C@@H](Cc2ccc(O)cc2)C(=O)N[C@@H](Cc2ccc(O)cc2)C(=O)NCC(=O)N[C@@H](CO)C(=O)N1)C(=O)N[C@@H](CC(=O)O)C(N)=O [SEQ ID NO: 48, LPCDYYGSCLD] (H-LPCDYYGSCLD-NH2; disulfide 3-9) | 26
8 | CC(C)C[C@H](NC(=O)[C@@H]1CSSC[C@H](N)C(=O)N[C@@H](CC(=O)O)C(=O)N[C@@H](Cc2ccc(O)cc2)C(=O)N[C@@H](Cc2ccc(O)cc2)C(=O)NCC(=O)N[C@@H]([C@@H](C)O)C(=O)N1)C(N)=O [compound 33] (H-CDYYGTCL-NH2; disulfide 1-7) | 22
9 | CC[C@H](C)[C@H](NC(=O)[C@H](Cc1c[nH]c2ccccc12)NC(=O)[C@@H]1CSSC[C@H](NC(=O)[C@H](CCC(=O)O)NC(=O)[C@@H](N)Cc2c[nH]c3ccccc23)C(=O)N2CCC[C@H]2C(=O)N[C@@H](Cc2ccc(O)cc2)C(=O)NCC(=O)N[C@@H](CC(C)C)C(=O)N1)C(N)=O [SEQ ID NO: 63, WECPYGLCWI] (H-WECPYGLCWI-NH2; disulfide 3-8; N-terminus and C-terminus assumed) | 3.87
10 | CC(C)C[C@H](NC(=O)[C@@H]1CSSC[C@H](NC(=O)[C@@H]2CCCN2C(=O)[C@@H](N)CC(C)C)C(=O)N[C@@H](CC(=O)O)C(=O)N[C@@H](C)C(=O)N[C@@H](Cc2ccc(O)cc2)C(=O)NCC(=O)N[C@@H]([C@@H](C)O)C(=O)N1)C(=O)N[C@@H](CC(=O)O)C(N)=O [SEQ ID NO: 43, LPCDAYGTCLD] (H-LPCDAYGTCLD-NH2; disulfide 3-9) | 4.5
11 | CC(C)C[C@H](NC(=O)[C@@H]1CSSC[C@H](NC(=O)[C@@H]2CCCN2C(=O)[C@@H](N)CC(C)C)C(=O)N[C@@H](CC(=O)O)C(=O)N[C@@H](Cc2ccc(O)cc2)C(=O)N[C@@H](Cc2ccc(O)cc2)C(=O)NCC(=O)N[C@@H](CCO)C(=O)N1)C(=O)N[C@@H](CC(=O)O)C(N)=O [SEQ ID NO: 50, LPCDYYGHseCLD] (H-LPCDYYG[hSer]CLD-NH2; disulfide 3-9) | > 500
12 | CC(C)C[C@H](NC(=O)[C@@H]1CSSC[C@H](NC(=O)[C@@H]2CCCN2C(=O)[C@@H](N)CC(C)C)C(=O)N[C@@H](CO)C(=O)N[C@@H](Cc2ccc(O)cc2)C(=O)N[C@@H](Cc2ccc(O)cc2)C(=O)NCC(=O)N[C@@H]([C@@H](C)O)C(=O)N1)C(=O)N[C@@H](Cc1c[nH]cn1)C(N)=O [SEQ ID NO: 12, LPCSYYGTCLH] (H-LPCSYYGTCLH-NH2; disulfide 3-9) | 9.8
13 | CC[C@H](C)[C@H](NC(=O)[C@H](Cc1c[nH]cn1)NC(=O)[C@@H]1CSSC[C@H](NC(=O)[C@H](Cc2c[nH]cn2)NC(=O)[C@H](Cc2ccccc2)NC(=O)CN)C(=O)N2CCC[C@H]2C(=O)N[C@@H](Cc2ccc(O)cc2)C(=O)N[C@@H](CC(=O)O)C(=O)N[C@@H](CC(C)C)C(=O)N1)C(=O)N[C@@H](CC(C)C)C(N)=O [SEQ ID NO: 57, GFHCPYDLCHIL] (H-GFHCPYDLCHIL-NH2; disulfide 4-9 (inferred); N-terminus and C-terminus assumed) | 6.7
14 | CC(C)C[C@H](NC(=O)[C@@H]1CSSC[C@H](NC(=O)[C@@H]2CCCN2C(=O)[C@@H](N)CC(C)C)C(=O)N[C@@H](CC(=O)O)C(=O)N[C@@H](Cc2ccc(O)cc2)C(=O)N[C@@H](Cc2ccc(O)cc2)C(=O)NCC(=O)N[C@@H](C(C)C)C(=O)N1)C(=O)N[C@@H](CC(=O)O)C(N)=O [SEQ ID NO: 51, LPCDYYGVCLD] (H-LPCDYYGVCLD-NH2; disulfide 3-9) | 28
15 | CC(C)C[C@H](NC(=O)[C@@H]1CSSC[C@H](NC(=O)[C@@H]2CCCN2C(=O)[C@@H](N)CC(C)C)C(=O)N[C@@H](CC(=O)O)C(=O)N[C@@H](Cc2ccc(O)cc2)C(=O)N[C@@H](Cc2ccc(O)cc2)C(=O)N[C@@H](C)C(=O)N[C@@H]([C@@H](C)O)C(=O)N1)C(=O)N[C@@H](CC(=O)O)C(N)=O [SEQ ID NO: 45, LPCDYYATCLD] | 12.3
16 | C[C@@H](O)[C@@H]1NC(=O)CNC(=O)[C@H](Cc2ccc(O)cc2)NC(=O)[C@H](Cc2ccc(O)cc2)NC(=O)[C@H](CC(=O)O)NC(=O)[C@@H](N)CSSC[C@@H](C(N)=O)NC1=O [compound 34] (H-CDYYGTC-NH2; disulfide 1-7) | 38
17 | CC[C@H](C)[C@H](NC(=O)[C@H](Cc1c[nH]c2ccccc12)NC(=O)[C@@H]1CSSC[C@H](NC(=O)[C@H](CCC(=O)O)NC(=O)[C@@H](N)Cc2c[nH]c3ccccc23)C(=O)N2CCC[C@H]2C(=O)N[C@@H](Cc2ccc(O)cc2)C(=O)NCC(=O)N[C@@H](CC(C)C)C(=O)N1)C(=O)N[C@@H](CCC(N)=O)C(N)=O [SEQ ID NO: 61, WECPYGLCWIQ] (H-WECPYGLCWIQ-NH2; disulfide 3-8) | 0.94
18 | CC(C)C[C@H](NC(=O)[C@@H]1CSSC[C@H](NC(=O)[C@H](C)NC(=O)[C@@H](N)CC(C)C)C(=O)N[C@@H](CC(=O)O)C(=O)N[C@@H](Cc2ccc(O)cc2)C(=O)N[C@@H](Cc2ccc(O)cc2)C(=O)NCC(=O)N[C@@H]([C@@H](C)O)C(=O)N1)C(=O)N[C@@H](CC(=O)O)C(N)=O [SEQ ID NO: 41, LACDYYGTCLD] (H-LACDYYGTCLD-NH2; disulfide 3-9) | 2.9
19 | CC[C@H](C)[C@H](NC(=O)[C@H](Cc1c[nH]cn1)NC(=O)[C@@H]1CSSC[C@H](NC(=O)[C@@H](N)Cc2c[nH]cn2)C(=O)N2CCC[C@H]2C(=O)N[C@@H](Cc2ccc(O)cc2)C(=O)N[C@@H](CC(=O)O)C(=O)N[C@@H](CC(C)C)C(=O)N1)C(=O)N[C@@H](CC(C)C)C(N)=O [SEQ ID NO: 59, HCPYDLCHIL] (H-HCPYDLCHIL-NH2; disulfide 2-7) | 3.8
20 | CC[C@H](C)[C@H](NC(=O)[C@H](Cc1c[nH]cn1)NC(=O)[C@@H]1CSSC[C@H](NC(=O)[C@H](Cc2c[nH]cn2)NC(=O)[C@H](Cc2ccccc2)NC(=O)[C@@H](N)Cc2c[nH]c3ccccc23)C(=O)N2CCC[C@H]2C(=O)N[C@@H](Cc2ccc(O)cc2)C(=O)N[C@@H](CC(=O)O)C(=O)N[C@@H](CC(C)C)C(=O)N1)C(=O)N[C@@H](CC(C)C)C(N)=O [SEQ ID NO: 21, W F H C P Y D L C H I L] (H-WFHCPYDLCHIL-NH2; disulfide 4-9; N-terminus and C-terminus assumed) | 2.63
21 | C[C@@H](O)[C@@H]1NC(=O)CNC(=O)[C@H](Cc2ccc(O)cc2)NC(=O)[C@H](Cc2ccc(O)cc2)NC(=O)[C@H](CC(=O)O)NC(=O)[C@@H](NC(=O)[C@@H]2CCCN2C(=O)[C@@H](N)CCCNC(=N)N)CSSC[C@@H](C(=O)N[C@@H](Cc2ccccc2)C(=O)N[C@@H](CC(=O)O)C(N)=O)NC1=O [SEQ ID NO: 8, RPCDYYGTCFD] (H-RPCDYYGTCFD-NH2; disulfide 3-9) | 3.4

Same assay, conditions: sequences of phage isolates from TN10-9 and TN6-6 libraries (Table 5); read-out: Kd DD(E)

Row | Compound | Kd [µM]
22 | QWECPYGLCWIQ [compound 22] | 0.74
23 | RFLCYDSYYHWWCSHH [compound 19] | ~10
24 | WFHCPYDLCHIL [compound 21] | 1.4
